The results in this text go back to patent publication US12491251B2, “Degraders of cyclin-dependent kinase 7 (CDK7) and uses thereof” (DANA-FARBER CANCER INSTITUTE, INC., priority 2019, dated 2025).

Assay [1] deals with T1, CDK7 (Homo sapiens, UniProt P50613).
T1 construct: endogenous in cells; host or cells: Jurkat cells
The experiment in a line: CDK7 degradation in Jurkat cells by immunoblot. The assay is classed as cell-based. As to conditions: 1 μM compound, 6 hours, vs DMSO. On the procedure:
(§1) Jurkat cells were treated with DMSO or 1 μM of compounds 1-26 for 6 hours. Cells were then lysed in radioimmunoprecipitation assay (RIPA) buffer (Sigma® Life Science) containing protease/phosphatase inhibitor cocktail (Roche). The protein concentrations were measured by bicinchoninic acid assay (BCA) analysis (Pierce™). Equal amounts of protein were resolved by 4-12% Tris-Base gels (Invitrogen™), and then transferred to the immunoblot polyvinylidene difluoride (PVDF) membrane (BioRad), and immunoblotted with primary antibodies against CDK7 (cell signaling) and glyceraldehyde 3-phosphate dehydrogenase (GAPDH) (Cell Signaling Technology®), and then immunoblotted with IRDye®800-labeled goat anti-rabbit immunoglobulin G (IgG) and IRDye®680-labeled goat anti-mouse IgG (LI-COR®) secondary antibodies. The membranes were detected on an Odyssey® CLx system.
In general terms: In western blotting, separated proteins are transferred to a membrane and probed.

The target in assay [2] is T1, CDK7. The assay is described as follows: Rescue of compound-induced CDK7 degradation in Jurkat cells (ligand and proteasome dependence), immunoblot. As to conditions: for dependence of the induced CDK7 degradation: Jurkat cells, 1 μM compound for 4 h after 2 h pretreatment with competitor or pathway inhibitor; for rescue of the CDK7 degradation induced by bispecific compound 3 / rescue of the CDK7 degradation induced by bispecific compound 20: Jurkat cells pretreated 2 h (10 μM YKL-5-124, 10 μM DGY-05-180, 0.2 μM Bortezomib, 1 μM MLN4924); for rescue of the CDK7 degradation induced by bispecific compound 3: then 1 μM compound 3 for 4 h; for rescue of the CDK7 degradation induced by bispecific compound 20: then 1 μM compound 20 for 4 h. Type of assay: cell-based. On the procedure:
as §1
Jurkat cells were pretreated with 10 μM YKL-5-124 (the parental compound and known CDK7 inhibitor), 10 μM DGY-05-180 (VHL ligand), 0.2 μM Bortezomib (a proteasome inhibitor available from, e.g., Millipore Sigma, Cat. No. 179324-69-7, Burlington, MA), and 1 μM MLN4924 (a neddylation inhibitor available from, e.g., MedChemExpress (MCE®), Cat. No. HY-70062, Monmouth Junction, NJ), for 2 h, and then treated with 1 μM compound 3 or 20 for 4 h. Cells were lysed and immunoblotted as described in Example 27 with antibodies to CDK7 and GAPDH. The structures of YKL-5-124, DGY-05-180, Bortezomib and MLN4924 are set forth below.

T1 sequence (P50613 2-346 limits assumed): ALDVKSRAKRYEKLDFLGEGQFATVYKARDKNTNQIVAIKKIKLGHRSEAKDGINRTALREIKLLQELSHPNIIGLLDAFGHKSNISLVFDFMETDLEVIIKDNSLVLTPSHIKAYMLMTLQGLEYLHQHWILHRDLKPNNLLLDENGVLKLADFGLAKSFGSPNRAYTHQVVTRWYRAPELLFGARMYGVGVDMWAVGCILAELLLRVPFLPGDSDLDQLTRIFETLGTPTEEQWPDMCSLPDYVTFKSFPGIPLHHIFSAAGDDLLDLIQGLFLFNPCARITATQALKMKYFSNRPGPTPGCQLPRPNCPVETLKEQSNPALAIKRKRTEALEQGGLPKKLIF
T1 sequence (P51946 whole entry partner): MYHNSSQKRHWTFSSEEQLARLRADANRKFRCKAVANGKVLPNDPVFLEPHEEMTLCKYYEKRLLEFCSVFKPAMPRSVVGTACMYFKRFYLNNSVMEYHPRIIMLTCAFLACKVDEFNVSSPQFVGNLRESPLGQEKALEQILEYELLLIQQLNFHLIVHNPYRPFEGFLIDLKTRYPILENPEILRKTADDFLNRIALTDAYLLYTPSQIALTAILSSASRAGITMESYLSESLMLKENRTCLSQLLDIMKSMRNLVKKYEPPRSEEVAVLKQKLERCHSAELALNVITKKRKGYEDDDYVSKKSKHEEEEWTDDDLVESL
T1 sequence (P51948 whole entry partner): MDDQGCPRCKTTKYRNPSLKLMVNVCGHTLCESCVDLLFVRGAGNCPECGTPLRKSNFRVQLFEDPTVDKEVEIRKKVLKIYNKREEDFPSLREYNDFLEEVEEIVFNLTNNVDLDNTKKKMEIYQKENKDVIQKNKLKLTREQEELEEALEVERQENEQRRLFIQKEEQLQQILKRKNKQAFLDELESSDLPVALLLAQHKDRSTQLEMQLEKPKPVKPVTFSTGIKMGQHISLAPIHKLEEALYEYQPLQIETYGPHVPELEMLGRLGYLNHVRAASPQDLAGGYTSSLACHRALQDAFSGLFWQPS

`Cc1ncsc1-c1ccc([C@H](C)NC(=O)[C@@H]2C[C@@H](O)CN2C(=O)[C@@H](NC(=O)CCCNC(=O)c2ccc(C(=O)Nc3n[nH]c4c3CN(C(=O)N[C@H](CN(C)C)c3ccccc3)C4(C)C)cc2)C(C)(C)C)cc1` [Compound 3, N1-(5-(((S)-2-(dimethylamino)-1-phenylethyl)carbamoyl)-6,6-dimethyl-1,4,5,6-tetrahydropyrrolo[3,4-c]pyrazol-3-yl)-N4-(4-(((S)-1-((2S,4R)-4-hydroxy-2-(((S)-1-(4-(4-methylthiazol-5-yl)phenyl)ethyl)carbamoyl)pyrrolidin-1-yl)-3,3-dimethyl-1-oxobutan-2-yl)amino)-4-oxobutyl)terephthalamide]: the “degradation of CDK7 (immunoblot)” value on CDK7 [1] is recorded as “induced the degradation of CDK7”. In addition, the “dependence of the induced CDK7 degradation” value at CDK7 [2] was “both ligand- and proteasome-dependent”.

With `C=CC(=O)Nc1ccc(C(=O)Nc2n[nH]c3c2CN(C(=O)N[C@H](CN(C)C)c2ccccc2)C3(C)C)cc1` [YKL-5-124], at CDK7 [2], the “rescue of the CDK7 degradation induced by bispecific compound 3” value (shortened to “rescue … by bispecific compound 3”) is on record as “rescued the CDK7 degradation” and the “rescue of the CDK7 degradation induced by bispecific compound 20” value (shortened to “rescue … by bispecific compound 20”) is on record as “rescued the CDK7 degradation”.

Take `NS(=O)(=O)OC[C@@H]1C[C@@H](n2ccc3c(N[C@H]4CCc5ccccc54)ncnc32)C[C@@H]1O` [MLN4924]: at CDK7 [2], the “rescue … by bispecific compound 3” value is listed as “rescued the CDK7 degradation” and the “rescue … by bispecific compound 20” value is “rescued the CDK7 degradation”.

Take `Cc1ncsc1-c1ccc([C@H](C)NC(=O)[C@@H]2C[C@@H](O)CN2C(=O)[C@@H](NC(=O)CCOCCNC(=O)c2ccc(C(=O)Nc3n[nH]c4c3CN(C(=O)N[C@H](CN(C)C)c3ccccc3)C4(C)C)cc2)C(C)(C)C)cc1` [Compound 15, N^1-(5-(((S)-2-(dimethylamino)-1-phenylethyl)carbamoyl)-6,6-dimethyl-1,4,5,6-tetrahydropyrrolo[3,4-c]pyrazol-3-yl)-N^4-(2-(3-(((S)-1-((2S,4R)-4-hydroxy-2-(((S)-1-(4-(4-methylthiazol-5-yl)phenyl)ethyl)carbamoyl)pyrrolidin-1-yl)-3,3-dimethyl-1-oxobutan-2-yl)amino)-3-oxopropoxy)ethyl)terephthalamide]: at CDK7 [1], the “degradation of CDK7 (immunoblot)” value is reported as “induced the degradation of CDK7”.

As for `Cc1ncsc1-c1ccc([C@H](C)NC(=O)[C@@H]2C[C@@H](O)CN2C(=O)[C@@H](NC(=O)CCCCNC(=O)c2ccc(C(=O)Nc3n[nH]c4c3CN(C(=O)N[C@H](CN(C)C)c3ccccc3)C4(C)C)cc2)C(C)(C)C)cc1` [Compound 20, N^1-(5-(((S)-2-(dimethylamino)-1-phenylethyl)carbamoyl)-6,6-dimethyl-1,4,5,6-tetrahydropyrrolo[3,4-c]pyrazol-3-yl)-N^4-(5-(((S)-1-((2S,4R)-4-hydroxy-2-(((S)-1-(4-(4-methylthiazol-5-yl)phenyl)ethyl)carbamoyl)pyrrolidin-1-yl)-3,3-dimethyl-1-oxobutan-2-yl)amino)-5-oxopentyl)terephthalamide], the “degradation of CDK7 (immunoblot)” value at CDK7 [1] is given as “induced the degradation of CDK7”. The “dependence of the induced CDK7 degradation” value on CDK7 [2] was “both ligand- and proteasome-dependent”.

On to `CN(C)C[C@@H](NC(=O)N1Cc2c(NC(=O)c3ccc(C(=O)NCCOCCOCCNc4cccc5c4C(=O)N(C4CCC(=O)NC4=O)C5=O)cc3)n[nH]c2C1(C)C)c1ccccc1` (stereo partly drawn) [Compound 26, N^1-(5-(((S)-2-(dimethylamino)-1-phenylethyl)carbamoyl)-6,6-dimethyl-1,4,5,6-tetrahydropyrrolo[3,4-c]pyrazol-3-yl)-N^4-(2-(2-(2-((2-(2,6-dioxopiperidin-3-yl)-1,3-dioxoisoindolin-4-yl)amino)ethoxy)ethoxy)ethyl)terephthalamide], for which the “degradation of CDK7 (immunoblot)” value on CDK7 [1] was “induced the degradation of CDK7”.

For the compound `CN(C)C[C@@H](NC(=O)N1Cc2c(NC(=O)c3ccc(C(=O)NCCCCCNc4ccc5c(c4)C(=O)N(C4CCC(=O)NC4=O)C5=O)cc3)n[nH]c2C1(C)C)c1ccccc1` (stereo partly drawn) [Compound 21, N^1-(5-(((S)-2-(dimethylamino)-1-phenylethyl)carbamoyl)-6,6-dimethyl-1,4,5,6-tetrahydropyrrolo[3,4-c]pyrazol-3-yl)-N^4-(5-((2-(2,6-dioxopiperidin-3-yl)-1,3-dioxoisoindolin-5-yl)amino)pentyl)terephthalamide], the “degradation of CDK7 (immunoblot)” value at CDK7 [1] is listed as “induced the degradation of CDK7”.

For `CN(C)C[C@@H](NC(=O)N1Cc2c(NC(=O)c3ccc(C(=O)NCCCCC#Cc4cccc5c4C(=O)N(C4CCC(=O)NC4=O)C5=O)cc3)n[nH]c2C1(C)C)c1ccccc1` (stereo partly drawn) [Compound 7, N^1-(5-(((S)-2-(dimethylamino)-1-phenylethyl)carbamoyl)-6,6-dimethyl-1,4,5,6-tetrahydropyrrolo[3,4-c]pyrazol-3-yl)-N^4-(6-(2-(2,6-dioxopiperidin-3-yl)-1,3-dioxoisoindolin-4-yl)hex-5-yn-1-yl)terephthalamide], on CDK7 [1], the “degradation of CDK7 (immunoblot)” value is “induced the degradation of CDK7”.

In the case of `CC(C)C[C@H](NC(=O)[C@H](Cc1ccccc1)NC(=O)c1cnccn1)B(O)O` [Bortezomib], on CDK7 [2], the “rescue … by bispecific compound 3” value is “rescued the CDK7 degradation” and the “rescue … by bispecific compound 20” value is “rescued the CDK7 degradation”.

In the case of `Cc1ncsc1-c1ccc([C@H](C)NC(=O)[C@@H]2C[C@@H](O)CN2C(=O)[C@@H](NC(=O)CCOCCOCCNC(=O)c2ccc(C(=O)Nc3n[nH]c4c3CN(C(=O)N[C@H](CN(C)C)c3ccccc3)C4(C)C)cc2)C(C)(C)C)cc1` [Compound 6], the “degradation of CDK7 (immunoblot)” value at CDK7 [1] is recorded as “induced the degradation of CDK7”.

Take `Cc1ncsc1-c1ccc([C@H](C)NC(=O)[C@@H]2C[C@@H](O)CN2C(=O)[C@@H](NC(=O)CCCCCNC(=O)c2ccc(C(=O)Nc3n[nH]c4c3CN(C(=O)N[C@H](CN(C)C)c3ccccc3)C4(C)C)cc2)C(C)(C)C)cc1` [Compound 12, N^1-(5-(((S)-2-(dimethylamino)-1-phenylethyl)carbamoyl)-6,6-dimethyl-1,4,5,6-tetrahydropyrrolo[3,4-c]pyrazol-3-yl)-N^4-(6-(((S)-1-((2S,4R)-4-hydroxy-2-(((S)-1-(4-(4-methylthiazol-5-yl)phenyl)ethyl)carbamoyl)pyrrolidin-1-yl)-3,3-dimethyl-1-oxobutan-2-yl)amino)-6-oxohexyl)terephthalamide]: the “degradation of CDK7 (immunoblot)” value on CDK7 [1] is recorded as “induced the degradation of CDK7”.

`Cc1ncsc1-c1ccc([C@H](C)NC(=O)[C@@H]2C[C@@H](O)CN2C(=O)[C@@H](NC(=O)CCOCCOCCOCCNC(=O)c2ccc(C(=O)Nc3n[nH]c4c3CN(C(=O)N[C@H](CN(C)C)c3ccccc3)C4(C)C)cc2)C(C)(C)C)cc1` [Compound 25, N^1-(5-(((S)-2-(dimethylamino)-1-phenylethyl)carbamoyl)-6,6-dimethyl-1,4,5,6-tetrahydropyrrolo[3,4-c]pyrazol-3-yl)-N^4—((S)-14-((2S,4R)-4-hydroxy-2-(((S)-1-(4-(4-methylthiazol-5-yl)phenyl)ethyl)carbamoyl)pyrrolidine-1-carbonyl)-15,15-dimethyl-12-oxo-3,6,9-trioxa-13-azahexadecyl)terephthalamide]: the “degradation of CDK7 (immunoblot)” value at CDK7 [1] is on record as “induced the degradation of CDK7”.

In the case of `CN(C)C[C@@H](NC(=O)N1Cc2c(NC(=O)c3ccc(C(=O)NCCOCCOCCOCCNc4cccc5c4C(=O)N(C4CCC(=O)NC4=O)C5=O)cc3)n[nH]c2C1(C)C)c1ccccc1` (stereo partly drawn) [Compound 1, N1-(5-(((S)-2-(dimethylamino)-1-phenylethyl)carbamoyl)-6,6-dimethyl-1,4,5,6-tetrahydropyrrolo[3,4-c]pyrazol-3-yl)-N4-(2-(2-(2-(2-((2-(2,6-dioxopiperidin-3-yl)-1,3-dioxoisoindolin-4-yl)amino)ethoxy)ethoxy)ethoxy)ethyl)terephthalamide], the “degradation of CDK7 (immunoblot)” value at CDK7 [1] is “induced the degradation of CDK7”.

With `Cc1ncsc1-c1ccc([C@H](C)NC(=O)[C@@H]2C[C@@H](O)CN2C(=O)[C@@H](NC(=O)CCCCCCNC(=O)c2ccc(C(=O)Nc3n[nH]c4c3CN(C(=O)N[C@H](CN(C)C)c3ccccc3)C4(C)C)cc2)C(C)(C)C)cc1` [Compound 22, N^1-(5-(((S)-2-(dimethylamino)-1-phenylethyl)carbamoyl)-6,6-dimethyl-1,4,5,6-tetrahydropyrrolo[3,4-c]pyrazol-3-yl)-N^4-(7-(((S)-1-((2S,4R)-4-hydroxy-2-(((S)-1-(4-(4-methylthiazol-5-yl)phenyl)ethyl)carbamoyl)pyrrolidin-1-yl)-3,3-dimethyl-1-oxobutan-2-yl)amino)-7-oxoheptyl)terephthalamide], the “degradation of CDK7 (immunoblot)” value on CDK7 [1] is listed as “induced the degradation of CDK7”.
